Read-outs that look alike come from different tables or passages of the source.
Tested on: lesions of psoriasis vulgaris
Description: This was a Phase I, single-center, randomized, double-blind, placebo-controlled study in male and female patients with stable psoriasis vulgaris aged >18 and <71 years. Sixteen patients were enrolled in 2 treatment groups. […] Patients attended a screening visit within 21 days prior to Day 1. Patients were then admitted to the CPU in the afternoon of Day −1 and remained resident in the CPU until the morning of Day 8. Patients attended a follow-up visit 7 to 10 days after the last treatment administration on Day 7.
The ointment was applied by the CPU staff, using a spatula and finger cot.
Physicians Global Assessment (PGA) scores were assessed at screening, Day 1, Day 7 and at follow-up. Digital photographs of the application sites were also taken on admission to the CPU, Day 7 and at follow-up.

## (9S, 10R, 12R)-10-(3′-mPEG2000-1′,3′-oxazolidine-2′,4′-dione)-2,3,9,10,11,12-hexahydro-9-methyl-1-oxo-9,12-epoxy-1H-diindolo[1,2,3-fg:3′,2′,1′-k,l]pyrrolo[3,4-i][1,6] benzodiazocine] [CT327]
7-day dosing period
  Complete resolution of plaque(s): No patients showed complete resolution
Plaque 1, DAY 1, N = 12
  PGA Erythma 1: FAINT ERYTHEMA, patients (%): (16.7%)
  PGA Erythma 2: LIGHT RED COLOURATION, patients (%): (66.7%)
  PGA Erythma 3: MODERATE RED COLOURATION, patients (%): (8.3%)
  PGA Erythma 4: BRIGHT RED COLOURATION, patients (%): (8.3%)
  PGA Induration 1: MINIMAL PLAQUE ELEVATION, =0.25 MM, patients (%): (33.3%)
  PGA Induration 2: MILD PLAQUE ELEVATION, =0.5 MM, patients (%): (41.7%)
  PGA Induration 3: MODERATE PLAQUE ELEVATION, =0.75 MM, patients (%): (25.0%)
  PGA Scaling 2: MILD, FINE SCALE DOMINATES, patients (%): (58.3%)
  PGA Scaling 3: MODERATE, COARSE SCALE PREDOMINATES, patients (%): (33.3%)
  PGA Scaling 4: MARKED, THICK, NON-TENACIOUS SCALE DOMINATES, patients (%): (8.3%)
  Physician Static Global Score 1: MINIMAL, patients (%): (8.3%)
  Physician Static Global Score 2: MILD, patients (%): (58.3%)
  Physician Static Global Score 3: MODERATE, patients (%): (33.3%)
Plaque 1, DAY 7, N = 12
  PGA Erythma 1: FAINT ERYTHEMA, patients (%): (16.7%)
  PGA Erythma 2: LIGHT RED COLOURATION, patients (%): (66.7%)
  PGA Erythma 3: MODERATE RED COLOURATION, patients (%): (8.3%)
  PGA Erythma 4: BRIGHT RED COLOURATION, patients (%): (8.3%)
  PGA Induration 1: MINIMAL PLAQUE ELEVATION, =0.25 MM, patients (%): (66.7%)
  PGA Induration 2: MILD PLAQUE ELEVATION, =0.5 MM, patients (%): (33.3%)
  PGA Scaling 0: NO EVIDENCE OF SCALING, patients (%): (8.3%)
  PGA Scaling 1: MINIMAL, OCCASIONAL FINE SCALE OVER LESS THAN 5% OF THE LESION, patients (%): (58.3%)
  PGA Scaling 2: MILD, FINE SCALE DOMINATES, patients (%): (33.3%)
  Physician Static Global Score 1: MINIMAL, patients (%): (41.7%)
  Physician Static Global Score 2: MILD, patients (%): (50.0%)
  Physician Static Global Score 3: MODERATE, patients (%): (8.3%)
Plaque 1, FOLLOW-UP, N = 12
  PGA Erythma 1: FAINT ERYTHEMA, patients (%): (33.3%)
  PGA Erythma 2: LIGHT RED COLOURATION, patients (%): (58.3%)
  PGA Erythma 4: BRIGHT RED COLOURATION, patients (%): (8.3%)
  PGA Induration 1: MINIMAL PLAQUE ELEVATION, =0.25 MM, patients (%): (33.3%)
  PGA Induration 2: MILD PLAQUE ELEVATION, =0.5 MM, patients (%): (66.7%)
  PGA Scaling 1: MINIMAL, OCCASIONAL FINE SCALE OVER LESS THAN 5% OF THE LESION, patients (%): (16.7%)
  PGA Scaling 2: MILD, FINE SCALE DOMINATES, patients (%): (58.3%)
  PGA Scaling 3: MODERATE, COARSE SCALE PREDOMINATES, patients (%): (25.0%)
  Physician Static Global Score 1: MINIMAL, patients (%): (16.7%)
  Physician Static Global Score 2: MILD, patients (%): (75.0%)
  Physician Static Global Score 3: MODERATE, patients (%): (8.3%)
Plaque 1, SCREENING, N = 12
  PGA Erythma 1: FAINT ERYTHEMA, patients (%): (8.3%)
  PGA Erythma 2: LIGHT RED COLOURATION, patients (%): (41.7%)
  PGA Erythma 3: MODERATE RED COLOURATION, patients (%): (41.7%)
  PGA Erythma 4: BRIGHT RED COLOURATION, patients (%): (8.3%)
  PGA Induration 1: MINIMAL PLAQUE ELEVATION, =0.25 MM, patients (%): (33.3%)
  PGA Induration 2: MILD PLAQUE ELEVATION, =0.5 MM, patients (%): (50.0%)
  PGA Induration 3: MODERATE PLAQUE ELEVATION, =0.75 MM, patients (%): (8.3%)
  PGA Induration 4: MARKED PLAQUE ELEVATION, =1 MM, patients (%): (8.3%)
  PGA Scaling 1: MINIMAL, OCCASIONAL FINE SCALE OVER LESS THAN 5% OF THE LESION, patients (%): (16.7%)
  PGA Scaling 2: MILD, FINE SCALE DOMINATES, patients (%): (33.3%)
  PGA Scaling 3: MODERATE, COARSE SCALE PREDOMINATES, patients (%): (41.7%)
  PGA Scaling 4: MARKED, THICK, NON-TENACIOUS SCALE DOMINATES, patients (%): (8.3%)
  Physician Static Global Score 1: MINIMAL, patients (%): (16.7%)
  Physician Static Global Score 2: MILD, patients (%): (41.7%)
  Physician Static Global Score 3: MODERATE, patients (%): (33.3%)
  Physician Static Global Score 4: MARKED, patients (%): (8.3%)
Plaque 2, DAY 1, N = 12
  PGA Erythma 2: LIGHT RED COLOURATION, patients (%): (33.3%)
  PGA Induration 1: MINIMAL PLAQUE ELEVATION, =0.25 MM, patients (%): (8.3%)
  PGA Induration 2: MILD PLAQUE ELEVATION, =0.5 MM, patients (%): (16.7%)
  PGA Induration 3: MODERATE PLAQUE ELEVATION, =0.75 MM, patients (%): (8.3%)
  PGA Scaling 2: MILD, FINE SCALE DOMINATES, patients (%): (16.7%)

Reference: patent US20190209472A1, “FORMULATIONS FOR DERMAL DELIVERY OF POLYMER CONJUGATES OF INDOLOCARBAZOLE COMPOUNDS WITH REDUCED EXPOSURE” (Sienna Biopharmaceuticals, Inc., priority 2017, published 2019)
